A short description of data set [1]: Antioxidant activity assessed as DPPH radical scavenging activity after 30 mins by microplate reader based assay. Type of data set: physicochemical. On the technique in general: The DPPH test is a chemical assay of radical scavenging.
Data set [2] is described as follows: Antioxidant activity assessed as FRAP values at 12.5 ug/ml incubated at 37 degC for 5 mins by FeSO4.7H2O calibration curve based method. Type of data set: physicochemical.
Data set [3] is described as follows: Cytotoxicity against human SGC7901 cells by MTT assay. Conditions: SGC-7901. Type of data set: functional, cell-based.
Data set [4] can be described thus: Antioxidant activity assessed as FRAP values at 25 ug/ml incubated at 37 degC for 5 mins by FeSO4.7H2O calibration curve based method. Type of data set: physicochemical.
Data set [5] concerns A549. Put plainly: Cytotoxicity against human A549 cells by MTT assay. Type of data set: functional, cell-based. (In general: Formazan colour is commonly taken as a measure of viable cells.)
Data set [6] is described as follows: Antioxidant activity assessed as ABTS radical scavenging activity after 15 mins. Type of data set: physicochemical.
Data set [7] concerns HeLa. Put plainly: Cytotoxicity against human HeLa cells by MTT assay. Type of data set: functional, cell-based.
Data set [8] is described as follows: Antioxidant activity assessed as FRAP values at 50 ug/ml incubated at 37 degC for 5 mins by FeSO4.7H2O calibration curve based method. Type of data set: physicochemical.
The nature of data set [9]: Antioxidant activity assessed as FRAP values at 100 ug/ml incubated at 37 degC for 5 mins by FeSO4.7H2O calibration curve based method. Type of data set: physicochemical.

The text below walks through data of ChEMBL document CHEMBL3400010, “Cytotoxic and antioxidant constituents from the leaves of Psidium guajava” (Bioorg Med Chem Lett, 2015).

A word on the IC50: it is the concentration needed to halve the response being measured.

Converted amounts (≈) assume the structure as drawn.

As for `O=C(OC[C@H]1O[C@@H](Oc2cc(-c3ccccc3)oc(=O)c2)[C@H](O)[C@@H](O)[C@@H]1O)c1cc(O)c(O)c(O)c1`, the concentration for half-maximal inhibition (IC50) in [1] was found to be 13.07 µg/mL (≈ 26 µM); in data set [3], 4.28 µg/mL (≈ 8.51 µM); in data set [5], 7.29 µg/mL (≈ 14.5 µM); in data set [6], 5.47 µg/mL (≈ 10.9 µM); in data set [7], 3.25 µg/mL (≈ 6.46 µM). Also, the Activity in data set [2] came out at 91.28 µmol/L; in [4] it was 143.76 µmol/L; in [8], 250.53 µmol/L; in [9], 386.38 µmol/L.
For the compound `Cc1c(O)cc(O[C@@H]2O[C@H](CO)[C@@H](O)[C@H](O)[C@H]2O)c(C(=O)c2ccccc2)c1O`, the half-inhibitory concentration (IC50) in data set [1] is more than 100 µg/mL; in [3], more than 10 µg/mL; in [5] it was more than 10 µg/mL; in data set [6] it was 29.27 µg/mL (≈ 72 µM); in data set [7], more than 10 µg/mL.
`Cc1c(O)c(C)c(O[C@@H]2O[C@H](CO)[C@@H](O)[C@H](O)[C@H]2O)c(C(=O)c2ccccc2)c1O`: the half-inhibitory concentration (IC50) in [1] was more than 100 µg/mL; in data set [3], more than 10 µg/mL; in data set [5], more than 10 µg/mL; in data set [6] it was 32.97 µg/mL (≈ 78.4 µM); in [7] it was more than 10 µg/mL. Further, the Activity is 11.54 µmol/L in data set [2], 14 µmol/L in data set [4], 23.73 µmol/L in data set [8] and 46.37 µmol/L in data set [9].
In the case of `O=C(OC[C@H]1O[C@@H](Oc2cc(O)c(C(=O)c3ccccc3)c(O)c2)[C@H](O)[C@@H](O)[C@@H]1O)c1cc(O)c(O)c(O)c1`, the IC50 was 37.93 µg/mL (≈ 69.7 µM) in [1]; more than 10 µg/mL in data set [3]; more than 10 µg/mL in data set [5]; 13.63 µg/mL (≈ 25 µM) in data set [6]; more than 10 µg/mL in data set [7]. In addition, the Activity in [2] came out at 18.46 µmol/L; in data set [4], 53.29 µmol/L; in data set [8], 131.03 µmol/L; in [9], 174.6 µmol/L.
For `Cc1c(O)c(C(=O)c2ccccc2)c(O)c(C)c1O[C@@H]1O[C@H](COC(=O)c2cc(O)c(O)c(O)c2)[C@@H](O)[C@H](O)[C@H]1O`, the IC50 in data set [1] is 28.33 µg/mL (≈ 49.5 µM); in data set [3], more than 10 µg/mL; in data set [5], more than 10 µg/mL; in [6] it was 8.3 µg/mL (≈ 14.5 µM); in [7], more than 10 µg/mL. Besides, the Activity in data set [2] was 48.3 µmol/L; in data set [4] it was 90.63 µmol/L; in data set [8], 185.03 µmol/L; in [9], 341.94 µmol/L.
Regarding `C/C(=C/O[C@@H]1O[C@H](COC(=O)c2cc(O)c(O)c(O)c2)[C@@H](O)[C@H](O)[C@H]1O)C(=O)O`, the IC50 is 13.1 µg/mL (≈ 31.5 µM) in [1]; 3.73 µg/mL (≈ 8.96 µM) in data set [3]; 7.01 µg/mL (≈ 16.8 µM) in [5]; 5.93 µg/mL (≈ 14.2 µM) in data set [6]; 3.51 µg/mL (≈ 8.44 µM) in [7]. In addition, the Activity in data set [2] was 70.64 µmol/L; in data set [4] it was 152.02 µmol/L; in data set [8], 263.31 µmol/L; in [9], 413.94 µmol/L.
Consider `O=C1O[C@H]([C@@H](O)CO)C(O)=C1O` [ASCORBIC ACID], for which the IC50 was 16.3 µg/mL (≈ 92.5 µM) in data set [1] and 8.53 µg/mL (≈ 48.4 µM) in [6]. Besides, the Activity was determined as 149.97 µmol/L in data set [2], 292.1 µmol/L in [4], 396.76 µmol/L in [8] and 442.43 µmol/L in [9].
With `O=c1c(O[C@@H]2O[C@@H](CO)[C@H](O)[C@H]2O)c(-c2ccc(O)c(O)c2)oc2cc(O)cc(O)c12` [AVICULARIN], the IC50 in data set [1] was 16.13 µg/mL (≈ 37.1 µM); in [3] it was more than 10 µg/mL; in [5], more than 10 µg/mL; in [6], 6.9 µg/mL (≈ 15.9 µM); in data set [7], more than 10 µg/mL. Further, the Activity in [2] is 123.88 µmol/L; in [4], 269 µmol/L; in data set [8], 291.63 µmol/L; in data set [9], 324.58 µmol/L.
As for `COc1cccc2c1C(=O)c1c(O)c3c(c(O)c1C2=O)C[C@@](O)(C(=O)CO)C[C@@H]3O[C@H]1C[C@H](N)[C@H](O)[C@H](C)O1` [DOXORUBICIN], the half-maximal inhibitory concentration (IC50) turned out to be 1.36 µg/mL (≈ 2.5 µM) in data set [3], 3.12 µg/mL (≈ 5.74 µM) in data set [5] and 2.68 µg/mL (≈ 4.94 µM) in data set [7].
With `O=c1c(O[C@@H]2OC[C@H](O)[C@H](O)[C@H]2O)c(-c2ccc(O)c(O)c2)oc2cc(O)cc(O)c12` [GUAJAVERIN], the IC50 is 13.43 µg/mL (≈ 30.9 µM) in data set [1]; more than 10 µg/mL in data set [3]; more than 10 µg/mL in data set [5]; 6.7 µg/mL (≈ 15.4 µM) in data set [6]; more than 10 µg/mL in [7]. The Activity came out at 57.21 µmol/L in data set [2], 175.59 µmol/L in data set [4], 220.51 µmol/L in data set [8] and 346.45 µmol/L in [9].
In the case of `O=c1c(O[C@@H]2O[C@H](CO)[C@H](O)[C@H](O)[C@H]2O)c(-c2ccc(O)c(O)c2)oc2cc(O)cc(O)c12` [HYPEROSIDE], the IC50 is 27.03 µg/mL (≈ 58.2 µM) in [1]; more than 10 µg/mL in data set [3]; more than 10 µg/mL in data set [5]; 10.57 µg/mL (≈ 22.8 µM) in [6]; more than 10 µg/mL in [7]. Besides, the Activity in data set [2] worked out at 68.06 µmol/L; in data set [4], 155.89 µmol/L; in [8], 287.94 µmol/L; in data set [9], 329.68 µmol/L.
Consider `O=c1c(O)c(-c2ccc(O)c(O)c2)oc2cc(O)cc(O)c12` [QUERCETIN], for which the half-maximal inhibitory concentration (IC50) is 11 µg/mL (≈ 36.4 µM) in data set [1]; 7.88 µg/mL (≈ 26.1 µM) in data set [3]; more than 10 µg/mL in [5]; 4.4 µg/mL (≈ 14.6 µM) in [6]; 8.26 µg/mL (≈ 27.3 µM) in [7]. For the same compound, the Activity is 333.26 µmol/L in data set [2], 359.18 µmol/L in data set [4], 379.4 µmol/L in [8] and 401.27 µmol/L in [9].
